In patent publication US20140193436A1, “EXTRACELLULAR TARGETED DRUG CONJUGATES” (priority 2011, published 2014):
Like-named read-outs stand apart in the source and are kept apart here.

Tests used:
[1] = tested on: LOX Melanoma cells (LOX IMVI); assay: In vitro cytotoxicity assessment (CellTiter-Glo cell viability), LOX; assay type: cell-based, human
Source text: (§1) Cells and culture conditions: Cell lines H460, HT29, A549, PANC-1, MB231, FaDu, H69 and H929 were obtained from the American Type Culture Collection (ATCC), Manassas, Va. The malignant melanoma cell line LOX IMVI was obtained from the DCTD Tumor Repository, National Cancer Institute, Frederick, Md., The cell lines were maintained in the recommended media formulations and subcultured every 3 to 4 days. To activate expression of certain targets to which the drug moiety bind and/or to form Na,K-ATPase complexes with certain proteins, cells can be cultured in recommended media plus additives such as phorbol esters, various growth factors and cytokines such as VEGF, fibroblast growth factors, human growth factors, interleukins, and tumor necrosis factors. In addition, cells can be cocultured with other cells like human fibroblasts. Additionally, microtiter plates can be coated with various proteins like fibrinogen.
(§2) Cells were incubated in the presence of test compound for 72 hr prior to cell viability testing.

[2] = tested on: H69 SCLC cells; assay: In vitro cytotoxicity assessment (CellTiter-Glo cell viability), H69; assay type: cell-based, human
Source text: as §1, §2

[3] = tested on: H460 LCLC cells; assay: In vitro cytotoxicity assessment (CellTiter-Glo cell viability), H460; assay type: cell-based, human
Source text: as §1, §2

[4] = tested on: FaDu Head/neck cells; assay: In vitro cytotoxicity assessment (CellTiter-Glo cell viability), FaDu; assay type: cell-based, human
Source text: as §1, §2

[5] = tested on: H929 Myeloma cells; assay: In vitro cytotoxicity assessment (CellTiter-Glo cell viability), H929; assay type: cell-based, human
Source text: as §1, §2

[6] = tested on: PANC1 Pancreas cells; assay: In vitro cytotoxicity assessment (CellTiter-Glo cell viability), PANC1; assay type: cell-based, human
Source text: as §1, §2

[7] = tested on: MB231 Breast cells; assay: In vitro cytotoxicity assessment (CellTiter-Glo cell viability), MB231; assay type: cell-based, human
Source text: as §1, §2

[8] = tested on: A549 NSCLC cells; assay: In vitro cytotoxicity assessment (CellTiter-Glo cell viability), A549; assay type: cell-based, human
Source text: as §1, §2

[9] = tested on: HT29 Colon cells; assay: In vitro cytotoxicity assessment (CellTiter-Glo cell viability), HT29; assay type: cell-based, human
Source text: as §1, §2

[10] = tested on: HT-29 human colon cancer xenograft; assay: HT-29 human colon cancer xenograft model; assay type: in vivo, Hsd:Athymic Nude-Foxn1nu mice; details: 15 mg/kg qd×5 (positive control); compared to vehicle
Method: Briefly, to establish a human colorectal adenocarcinoma disease model, tumors from HT-29 xenograft bearing mice were minced and 8 mm^3 fragments were transplanted s.c. by trocar needle into the left flank of Hsd:Athymic Nude-Foxn1^nu mice (Harlan, Indianapolis, Ind.). Therapy with EDC2.2 was then initiated when the tumor volume in groups of 7 animals averaged ˜100 mm^3. Treatment using vehicle control and either 1 or 5 mg/kg EDC2.2 was administered i.v. using the schedule of one injection every 3 days with 4 total injected doses (q3d×4). 15 mg/kg paclitaxel dosed at qd×5 served as a positive control treatment group. Tumor volumes were measured for each group using calibrated vernier calipers and plotted against first day of tumor implant for 69 days post-implant and 41 days post-initial dose. […] Therefore, EDCs that employ targeting moieties to CD147 conjugated to agents that act on the Na,K-ATPase should be generally useful in treating colon cancers.

Compound: C[C@]12CC[C@H](OC3OC[C@H](N)[C@@H](O)[C@@H]3O)C=C1CCC1C2CC[C@]2(C)[C@@H](c3ccc(=O)oc3)CC[C@]12O (stereo partly shown) [CEN09-106]
- EC50 ([1]; LOX Melanoma, 72 hr with test compound, read-out: EC50): 2.5 nM
- EC50 ([2]; H69 SCLC, 72 hr with test compound, read-out: EC50): 1 nM
- EC50 ([3]; H460 LCLC, 72 hr with test compound, read-out: EC50): 1.4 nM
- EC50 ([4]; FaDu Head/neck, 72 hr with test compound, read-out: EC50): 3.1 nM
- EC50 ([5]; H929 Myeloma, 72 hr with test compound, read-out: EC50): 3.1 nM
- EC50 ([6]; PANC1 Pancreas, 72 hr with test compound, read-out: EC50): 1.1 nM
- EC50 ([7]; MB231 Breast, 72 hr with test compound, read-out: EC50): 3.3 nM
- EC50 ([8]; A549 NSCLC, 72 hr with test compound, read-out: EC50): 0.66 nM
- EC50 ([9]; HT29 Colon, 72 hr with test compound, read-out: EC50): 2.9 nM

Compound: C[C@]12CC[C@H](O[C@H]3OC[C@H](NC(=O)CCOCCOCCOCCOCCOCCOCCOCCOCCOCCOCCOCCOCCOCCOCCOCCOCCOCCOCCOCCOCCOCCOCCOCCOCCNC(=O)CCN4C(=O)C=CC4=O)[C@H](O)C3O)C=C1CCC1C2CC[C@]2(C)[C@@H](c3ccc(=O)oc3)CC[C@]12O (stereo partly shown) [CEN010-105]
- EC50 ([1]; Homo sapiens, LOX, 72 h): 71 nM
- EC50 ([2]; Homo sapiens, 72 h): 26.6 nM
- EC50 ([3]; Homo sapiens, NCI-H460, 72 h): 76.9 nM
- EC50 ([4]; Homo sapiens, FaDu, 72 h): 75.5 nM
- EC50 ([5]; Homo sapiens, NCI-H929, 72 h): 89.6 nM
- EC50 ([6]; Homo sapiens, PANC-1, 72 h): 27.1 nM
- EC50 ([7]; Homo sapiens, 72 h): 109 nM
- EC50 ([8]; Homo sapiens, A549, 72 h): 31.3 nM
- EC50 ([9]; Homo sapiens, HT-29, 72 h): 60 nM

Compound: CC(=O)O[C@H]1C(=O)[C@@]2(C)[C@H]([C@H](OC(=O)c3ccccc3)[C@]3(O)C[C@H](OC(=O)[C@H](O)[C@@H](NC(=O)c4ccccc4)c4ccccc4)C(C)=C1C3(C)C)[C@]1(OC(C)=O)CO[C@@H]1C[C@@H]2O [Paclitaxel, paclitaxel]
- growth inhibition of the tumor [10]: 85%
